Test results from article PMC10082216 (Nature Communications, 2023).
Where two headings read alike, the source gives them in different places.

Tests used:
[1] = test system: mature stage V gametocytes (NF54 strain); test: microbe, parasite or virus in culture; assay type: cell-based, Plasmodium falciparum
Procedure, shortened: (§1)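 NF54 stage V gametocytes (day 17, density-purified, 0.5% hematocrit) exposed 24 h to compounds at 1.11 µM (primary) or in dose-response. Killing scored by MitoTracker staining; gametocytemia by Sybr Green/CellMask staining, with microsphiltration for stiffening. DMSO 0.05% negative control.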

[2] = test system: mature stage V gametocytes (NF54 strain); test: High-throughput screening: killing effect by MitoTracker staining, primary screening at 1.11 µM and dose-response analysis; assay type: cell-based, Plasmodium falciparum; conditions: stage V gametocytes NF54, 24 h, dose-response analysis, N/A = not active in dose-response analysis, read-out: Killing IC50
Procedure, shortened: as §1

[3] = Hit scoring on safety in human subjects and pharmacokinetics; conditions: for Score (PK): peak plasma concentration vs IC50
Description: Hits from the ReFrame library were further selected based on safety, preferably oral administration (high score if oral), and potential availability for widespread use.

[4] = test system: human subjects; conditions: cited from earlier work; for patients with significant adverse events: human, in vivo; for AE (%) / SAE (%): healthy volunteers
[5] = test system: P.falciparum Dd2; parameters: method as in previously published reports (Table S1 legend); conditions: 72 h; results in previous assays; ref previously published reports (Table S1 legend); read-out: 72-h Dd2-SybrGreen PBFS assay IC50; cited from earlier work
[6] = test system: HEK293T; conditions: read-out: Cellular cytotoxicity assay IC50, HEK293T; 72 h; first value of cell; ref previously published reports (Table S1 legend); cited from earlier work
[7] = test system: HepG2; conditions: read-out: Cellular cytotoxicity assay IC50, HepG2; 72 h; second value of cell; ref previously published reports (Table S1 legend); cited from earlier work
[8] = cited from earlier work
[9] = Plasmodium falciparum, NF54, 24 h, read-out: Stiffening IC50 (retention)
[10] = Plasmodium falciparum, NF54, 24 h
[11] = 50 mg single dose, ref NCT01937975
[12] = healthy volunteers, 50 mg single dose, ref NCT01937975
[13] = 90 mg single dose in combination with sofosbuvir 400 mg, ref CTR20160149
[14] = healthy volunteers, 90 mg single dose in combination with sofosbuvir 400 mg, ref CTR20160149
[15] = 100 mg single dose in combination with sofosbuvir 400 mg, ref CTR20160602
[16] = healthy volunteers, 100 mg single dose in combination with sofosbuvir 400 mg, ref CTR20160602

CN(C)Cc1c(C(=O)NCCOc2ccc(C(=O)NO)cc2)oc2ccccc12 [Abexinostat]
IC50 [1, 9]: 640 nM | IC50 [2, 10]: 2 µM | Score (safety) [3]: 0 | Score (PK) [3]: 0 | patients with significant adverse events [4]: more than 15%

COc1ccc(-c2nc(N3CCOCC3)c3sc(CN(C)c4ncc(C(=O)NO)cn4)cc3n2)cn1 [CUDC-907]
IC50 [1, 9]: 1860 nM | IC50 [2, 10]: 3.32 µM | Score (safety) [3]: 0 | Score (PK) [3]: 0 | IC50 [5]: 18 nM | IC50 [6]: 30 nM | IC50 [7]: 3 nM | rate of life-threatening adverse events ([4]; ref NCT02674750 (CUDC-907), NCT02795819 (AR-42)): > 25%

COC(=O)N[C@H](C(=O)N1CCC[C@H]1c1nc(-c2ccc(-c3ccc(-c4c[nH]c([C@@H]5CCCN5C(=O)[C@@H](NC(=O)OC)C(C)C)n4)cc3)cc2)c[nH]1)C(C)C [Daclatasvir]
Cmax ([8]; human, in vivo, 30 mg): 945 nM | t1/2 ([8]; human, in vivo, 30 mg): 12.4 h

COC(=O)N[C@H](C(=O)N1CCC[C@H]1c1nc(-c2ccc3c(c2)O[C@@H](c2ccccc2)n2c-3cc3cc(-c4c[nH]c([C@@H]5CCCN5C(=O)[C@@H](NC(=O)OC)C(C)C)n4)ccc32)c[nH]1)C(C)C [Elbasvir]
AE (%) [4, 11]: 37.5% | SAE (%) [4, 11]: 0% | Cmax [8, 12]: 163 nM | t1/2 [8, 12]: 25 h

CCN(CC)Cc1ccc2cc(COC(=O)Nc3ccc(C(=O)NO)cc3)ccc2c1.Cl.O [Givinostat hydrochloride]
IC50 ([1]; stage V gametocytes NF54, 24 h, dose-response analysis, N/A = not active in dose-response analysis, read-out: Stiffening IC50 (retention)): 1400 nM | IC50 [2]: 2.1 µM | Score (safety) [3]: 0 | Score (PK) [3]: 0 | patients with significant adverse events [4]: more than 15%

COC(=O)N[C@H](C(=O)N1CC2(CC2)C[C@H]1c1ncc(-c2ccc3c(c2)C(F)(F)c2cc(-c4ccc5nc([C@@H]6[C@H]7CC[C@H](C7)N6C(=O)[C@@H](NC(=O)OC)C(C)C)[nH]c5c4)ccc2-3)[nH]1)C(C)C [Ledipasvir]
safety in pregnant women [4]: can be safely administered to pregnant women | AE (%) [4, 13]: 42.9% | SAE (%) [4, 13]: 0% | Cmax [8, 14]: 362 nM | t1/2 [8, 14]: 39.9 h

CS(=O)(=O)c1ccc(-c2cnc(N)c(-c3ccc(C(F)(F)F)nc3)c2)cc1 [MMV-390048]
IC50 [1, 9]: 3500 nM | IC50 ([1]; Plasmodium falciparum, NF54, read-out: IC50 (killing and stiffening, given as range)): 3500 to 3900 nM | IC50 [2, 10]: 3.86 µM | IC50 [2]: 3.9 µM | Score (safety) [3]: 3 | Score (PK) [3]: 2 (Peak plasma concentration between 1/3 IC50 and IC50 (Score = 2)) | IC50 [5]: 229 nM | serum peak concentration ([8]; humans, highest 120 mg dose, ref 37 (McCarthy et al 2020)): 2.8 µM

COC(=O)N[C@H](C(=O)N1CCC[C@H]1C(=O)Nc1ccc([C@@H]2CC[C@@H](c3ccc(NC(=O)[C@@H]4CCCN4C(=O)[C@@H](NC(=O)OC)C(C)C)cc3)N2c2ccc(C(C)(C)C)cc2)cc1)C(C)C [Ombitasvir]
t1/2 ([8]; human, in vivo): 21 to 25 h

COC[C@H]1C[C@@H](c2ncc(-c3ccc4c(c3)COc3cc5c(ccc6nc([C@@H]7CC[C@H](C)N7C(=O)[C@@H](NC(=O)OC)C(C)C)[nH]c65)cc3-4)[nH]2)N(C(=O)[C@H](NC(=O)OC)c2ccccc2)C1 [Velpatasvir]
AE (%) [4, 15]: 42.9% | SAE (%) [4, 15]: 0% | Cmax [8, 16]: 584 nM | t1/2 [8, 16]: 16.8 h
